Measurements reported in the NIST ThermoML archive (doi:10.1021/je0340755).

Test: xn = mol fraction of the nth substance listed
Settings: 101.3 kPa, Liquid; for viscosity: Capillary tube (Ostwald / Ubbelohde) method

CC(O)CCO (stereo not given) [1,3-butanediol] + O
Settings	mass density [kg/m3]	speed of sound [m/s]	viscosity [mPa·s]
298.15 K, x2 = 0.045	1001	1544.1	92.65
298.15 K, x2 = 0.1445	1003.36	1569.1	81.12
298.15 K, x2 = 0.2499	1006.05	1594.2	67.64
298.15 K, x2 = 0.3526	1008.62	1613.2	54.19
298.15 K, x2 = 0.4519	1011.07	1631.1	41.72
298.15 K, x2 = 0.5035	1012.39	1643.5	35.66
298.15 K, x2 = 0.5563	1013.79	1652.1	29.86
298.15 K, x2 = 0.6507	1016.24	1682	20.66
298.15 K, x2 = 0.7518	1017.77	1702	12.64
298.15 K, x2 = 0.8477	1015.59	1681.6	6.82
298.15 K, x2 = 0.9081	1010.74	1673.4	4.008
298.15 K, x2 = 0.9152	1009.95	1660.2	3.719
298.15 K, x2 = 0.9253	1008.73	1645	3.322
298.15 K, x2 = 0.9355	1007.4	1615.2	2.937
298.15 K, x2 = 0.9521	1005.03	1610.8	2.348
298.15 K, x2 = 0.9543	1004.7	1599.6	2.273
298.15 K, x2 = 0.9597	1003.86	1576.9	2.093
298.15 K, x2 = 0.9699	1002.22	1551.3	1.765
298.15 K, x2 = 0.9804	1000.46	1525.7	1.444
298.15 K, x2 = 0.9901	998.79	1519.4	1.163
298.15 K, x2 = 0.9924	998.38	1510.8	1.098
298.15 K, x2 = 0.9955	997.84	1527.6	1.012
308.15 K, x2 = 0.045	995.14	1500.6	49.94
308.15 K, x2 = 0.1445	997.4	1520.3	43.43
308.15 K, x2 = 0.2499	999.97	1538.6	36.09
308.15 K, x2 = 0.3526	1002.45	1561.8	29.07
308.15 K, x2 = 0.4519	1004.84	1585.2	22.69
308.15 K, x2 = 0.5035	1006.14	1597	19.58
308.15 K, x2 = 0.5563	1007.52	1609.3	16.57
308.15 K, x2 = 0.6507	1009.99	1634.5	11.66
308.15 K, x2 = 0.7518	1011.69	1666.3	7.207
308.15 K, x2 = 0.8477	1010.07	1684	3.905
308.15 K, x2 = 0.9081	1005.92	1665.1	2.337
308.15 K, x2 = 0.9152	1005.23	1659.9	2.179
308.15 K, x2 = 0.9253	1004.18	1657.3	1.965
308.15 K, x2 = 0.9355	1003.02	1640.7	1.759
308.15 K, x2 = 0.9521	1000.96	1619.1	1.45
308.15 K, x2 = 0.9543	1000.67	1615.8	1.411
308.15 K, x2 = 0.9597	999.94	1607.2	1.318
308.15 K, x2 = 0.9699	998.52	1589	1.15
308.15 K, x2 = 0.9804	996.99	1567.4	0.99
308.15 K, x2 = 0.9901	995.53	1544.6	0.851
308.15 K, x2 = 0.9924	995.19	1536.8	0.819
308.15 K, x2 = 0.9955	994.71	1530.7	0.778
318.15 K, x2 = 0.045	989.57	1474.8	28.95
318.15 K, x2 = 0.1445	991.66	1492.5	25.16
318.15 K, x2 = 0.2499	994.06	1509.5	20.85
318.15 K, x2 = 0.3526	996.38	1531.8	16.64
318.15 K, x2 = 0.4519	998.64	1554.7	12.79
318.15 K, x2 = 0.5035	999.86	1566.6	10.94
318.15 K, x2 = 0.5563	1001.18	1579.1	9.164
318.15 K, x2 = 0.6507	1003.55	1604.8	6.346
318.15 K, x2 = 0.7518	1005.28	1638.6	3.879
318.15 K, x2 = 0.8477	1004.06	1662.4	2.11
318.15 K, x2 = 0.9081	1000.51	1652.9	1.304
318.15 K, x2 = 0.9152	999.92	1649.3	1.226
318.15 K, x2 = 0.9253	999	1643	1.122
318.15 K, x2 = 0.9355	998	1635.1	1.024
318.15 K, x2 = 0.9521	996.21	1618.5	0.881
318.15 K, x2 = 0.9543	995.96	1616	0.864
318.15 K, x2 = 0.9597	995.33	1609.2	0.824
318.15 K, x2 = 0.9699	994.09	1594.8	0.753
318.15 K, x2 = 0.9804	992.76	1577.4	0.69
318.15 K, x2 = 0.9901	991.5	1558.9	0.639
318.15 K, x2 = 0.9924	991.2	1554.1	0.628
318.15 K, x2 = 0.9955	990.8	1547.5	0.615
328.15 K, x2 = 0.045	980.01	1456.8	17.94
328.15 K, x2 = 0.1445	982.02	1473	15.5
328.15 K, x2 = 0.2499	984.33	1489.7	12.68
328.15 K, x2 = 0.3526	986.62	1509.9	9.939
328.15 K, x2 = 0.4519	988.88	1530.8	7.454
328.15 K, x2 = 0.5035	990.12	1542.3	6.269
328.15 K, x2 = 0.5563	991.47	1554.1	5.15
328.15 K, x2 = 0.6507	993.99	1579.6	3.415
328.15 K, x2 = 0.7518	996.11	1612.2	1.97
328.15 K, x2 = 0.8477	995.8	1638.8	1.028
328.15 K, x2 = 0.9081	993.31	1635.3	0.666
328.15 K, x2 = 0.9152	992.87	1633	0.636
328.15 K, x2 = 0.9253	992.19	1628.7	0.598
328.15 K, x2 = 0.9355	991.44	1622.5	0.565
328.15 K, x2 = 0.9521	990.11	1610.6	0.525
328.15 K, x2 = 0.9543	989.92	1608.3	0.521
328.15 K, x2 = 0.9597	989.45	1603.1	0.512
328.15 K, x2 = 0.9699	988.53	1591.7	0.5
328.15 K, x2 = 0.9804	987.55	1578.7	0.495
328.15 K, x2 = 0.9901	986.62	1563.6	0.496
328.15 K, x2 = 0.9924	986.41	1559.6	0.497
328.15 K, x2 = 0.9955	986.11	1555	0.499
338.15 K, x2 = 0.045	972.67	1438.1	11.63
338.15 K, x2 = 0.1445	974.54	1452.7	9.961
338.15 K, x2 = 0.2499	976.7	1468.1	8.015
338.15 K, x2 = 0.3526	978.84	1486.2	6.116
338.15 K, x2 = 0.4519	980.99	1506.1	4.415
338.15 K, x2 = 0.5035	982.18	1516.1	3.616
338.15 K, x2 = 0.5563	983.48	1527.9	2.874
338.15 K, x2 = 0.6507	985.94	1552	1.759
338.15 K, x2 = 0.7518	988.14	1584.1	0.895
338.15 K, x2 = 0.8477	988.28	1611.3	0.418
338.15 K, x2 = 0.9081	986.44	1614.1	0.302
338.15 K, x2 = 0.9152	986.1	1612.4	0.299
338.15 K, x2 = 0.9253	985.58	1609.7	0.298
338.15 K, x2 = 0.9355	985	1606.3	0.301
338.15 K, x2 = 0.9521	983.95	1597.7	0.317
338.15 K, x2 = 0.9543	983.8	1596.6	0.32
338.15 K, x2 = 0.9597	983.44	1592.9	0.329
338.15 K, x2 = 0.9699	982.72	1585.4	0.348
338.15 K, x2 = 0.9804	981.96	1575.5	0.374
338.15 K, x2 = 0.9901	981.25	1565.5	0.403
338.15 K, x2 = 0.9924	981.09	1561.7	0.411
338.15 K, x2 = 0.9955	980.87	1558.4	0.422
